Laboratory results from US20090324682A1 (priority 2004, published 2009).

Key:
[1] = tested on: Human smooth muscle cells (SMC); experiment: Proliferation of human smooth muscle cell cultures treated with rhodamine 123 and/or FDG; assay type: cell-based
Method: Human smooth muscle cells (SMC) were treated with rhodamine 123 and/or with FDG.
Three levels of Rhodamine 123 concentration were used first: 0.05, 1 and 2.5 mg/ml.
A combined composition of FDG and Rhodamine at various dosages were evaluated on the same human SMC cultures. The doses (FDG/rhodamine in mg/ml) were as follows: […]

[2] = Maximal tolerated dose of Rhodamine 123 delivered intra-venously in man; assay type: in vivo; conditions: 70 kg patient
Method: Because inhibitors of oxidative phorphorylation are extremely toxic to a subject in the doses needed for efficacy via the systemic route, such inhibitors have been largely overlooked for effective treatment of conditions such as cancer. […] It is also known that the maximal tolerated dose of Rhodamine 123 delivered intra-venously in man is 95 mg/m^2. For a 70 kg patient, the maximum dose of systemically delivered rhodamine is about 150 mg. […] There was an accumulation of rhodamine in the prostate of the patients, but it was not sufficient to provoke a significant response.

prostate tumours = conditions: maximum non-lethal systemic dose, cited from earlier work

In the case of rhodamine 123, the “concentration enough to stop smooth muscle cell proliferation” value [1] is reported as 5 µg/mL, the “proliferation rates of SMC compared to non rhodamine treated cells” value ([1]; Rhodamine 123 0.05 mg/ml) is reported as 90+21.6% and the “proliferation rates of SMC compared to non rhodamine treated cells” value ([1]; Rhodamine 123 1 mg/ml) is reported as 51.2 ± 10.7%. For the same substance, the “proliferation rates of SMC compared to non rhodamine treated cells” value ([1]; Rhodamine 123 2.5 mg/ml) was 7.3 ± 5.1%, the SMC proliferation ([1]; higher rhodamine concentrations (above 2.5 mg/ml)) was “totally suppressed” and the “maximum dose of systemically delivered rhodamine” value [2] was “about 150 mg”. The “effect on prostate tumours” value (prostate tumours) was “no useful effect” and the “rhodamine in the prostate of the patients” value (prostate tumours; not sufficient to provoke a significant response) was “accumulation”.
